According to the supplement of paper PMC10883282:

How the values were obtained:
Assay in all cases: relative viability vs DMSO control (72 h) (fraction); higher = more viable cells
SK-ES-1 = system: SK-ES-1
Procedure, shortened: (§1)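 Relative viability was measured with ATPLite and expressed as percent growth, averaged across up to triplicate wells. Sarcoma cell lines had been seeded in 384-well plates to reach 80–90% confluence, dosed after 24 h, and incubated 72 h at 37 °C, 5% CO2. All data were rescaled on a scale where 1 is full and 0 is none.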

SW684 = system: SW684
Procedure, shortened: as §1

HS729 = system: HS729
Procedure, shortened: as §1

VA-ES-BJ = system: VA-ES-BJ
Procedure, shortened: as §1

KHOS-NP = system: KHOS-NP
Procedure, shortened: as §1

A204 = system: A204
Procedure, shortened: as §1

SW872 = system: SW872
Procedure, shortened: as §1

SK-LMS-1 = system: SK-LMS-1
Procedure, shortened: as §1

SYO-1 = system: SYO-1
Procedure, shortened: as §1

MES-SA = system: MES-SA
Procedure, shortened: as §1

RD = system: RD
Procedure, shortened: as §1

G401 = system: G401
Procedure, shortened: as §1

COC(=O)[C@@]1(O)C[C@H]2O[C@]1(C)n1c3ccccc3c3c4c(c5c6ccccc6n2c5c31)C(=O)NC4 [K-252a]
Conditions	relative viability
A204, 0.00017 µM	1.06
A204, 0.00051 µM	1.11
A204, 0.00152 µM	1.06
A204, 0.00457 µM	1.07
A204, 0.01372 µM	0.941
A204, 0.04115 µM	0.6765
A204, 0.1235 µM	0.527
A204, 0.3704 µM	0.433
A204, 1.111 µM	0.374
A204, 3.333 µM	0.31
A204, 10 µM	0.0136
G401, 0.00017 µM	1.05
G401, 0.00051 µM	1.06
G401, 0.00152 µM	1.03
G401, 0.00457 µM	1.031
G401, 0.01372 µM	1.04
G401, 0.04115 µM	0.977
G401, 0.1235 µM	1
G401, 0.3704 µM	0.893
G401, 1.111 µM	0.0854
G401, 3.333 µM	0.0149
G401, 10 µM	0.00607
HS729, 0.00017 µM	1.06
HS729, 0.00051 µM	1.02
HS729, 0.00152 µM	1
HS729, 0.00457 µM	0.923
HS729, 0.01372 µM	0.863
HS729, 0.04115 µM	0.754
HS729, 0.1235 µM	0.713
HS729, 0.3704 µM	0.752
HS729, 1.111 µM	0.588
HS729, 3.333 µM	0.356
HS729, 10 µM	0.0254
KHOS-NP, 0.00017 µM	1.09
KHOS-NP, 0.00051 µM	1.101
KHOS-NP, 0.00152 µM	1.1
KHOS-NP, 0.00457 µM	1.08
KHOS-NP, 0.01372 µM	1.1
KHOS-NP, 0.04115 µM	1.071
KHOS-NP, 0.1235 µM	0.961
KHOS-NP, 0.3704 µM	0.927
KHOS-NP, 1.111 µM	0.286
KHOS-NP, 3.333 µM	0.154
KHOS-NP, 10 µM	0.0717
MES-SA, 0.00017 µM	0.97
MES-SA, 0.00051 µM	0.953
MES-SA, 0.00152 µM	0.956
MES-SA, 0.00457 µM	0.916
MES-SA, 0.01372 µM	0.827
MES-SA, 0.04115 µM	0.618
MES-SA, 0.1235 µM	0.596
MES-SA, 0.3704 µM	0.407
MES-SA, 1.111 µM	0.324
MES-SA, 3.333 µM	0.0952
MES-SA, 10 µM	0.00197
RD, 0.00017 µM	1.07
RD, 0.00051 µM	1.08
RD, 0.00152 µM	1.11
RD, 0.00457 µM	1.12
RD, 0.01372 µM	1.13
RD, 0.04115 µM	1.13
RD, 0.1235 µM	1.09
RD, 0.3704 µM	1
RD, 1.111 µM	0.507
RD, 3.333 µM	0.278
RD, 10 µM	0.0929
SK-ES-1, 0.00017 µM	1.06
SK-ES-1, 0.00051 µM	1.05
SK-ES-1, 0.00152 µM	1.02
SK-ES-1, 0.00457 µM	1.02
SK-ES-1, 0.01372 µM	0.778
SK-ES-1, 0.04115 µM	0.508
SK-ES-1, 0.1235 µM	0.398
SK-ES-1, 0.3704 µM	0.256
SK-ES-1, 1.111 µM	0.126
SK-ES-1, 3.333 µM	0.115
SK-ES-1, 10 µM	0.114
SK-LMS-1, 0.00017 µM	1.03
SK-LMS-1, 0.00051 µM	1.01
SK-LMS-1, 0.00152 µM	1.04
SK-LMS-1, 0.00457 µM	1.044
SK-LMS-1, 0.01372 µM	0.9
SK-LMS-1, 0.04115 µM	0.719
SK-LMS-1, 0.1235 µM	0.664
SK-LMS-1, 0.3704 µM	0.619
SK-LMS-1, 1.111 µM	0.339
SK-LMS-1, 3.333 µM	0.212
SK-LMS-1, 10 µM	0.0825
SW684, 0.00017 µM	1.12
SW684, 0.00051 µM	1.176
SW684, 0.00152 µM	1.14
SW684, 0.00457 µM	1.18
SW684, 0.01372 µM	1.2
SW684, 0.04115 µM	1.14
SW684, 0.1235 µM	1.05
SW684, 0.3704 µM	0.906
SW684, 1.111 µM	0.512
SW684, 3.333 µM	0.0655
SW684, 10 µM	0.0141
SW872, 0.00017 µM	1.09
SW872, 0.00051 µM	1.06
SW872, 0.00152 µM	1.1
SW872, 0.00457 µM	1.05
SW872, 0.01372 µM	0.985
SW872, 0.04115 µM	0.843
SW872, 0.1235 µM	0.759
SW872, 0.3704 µM	0.589
SW872, 1.111 µM	0.394
SW872, 3.333 µM	0.0892
SW872, 10 µM	0.0117
SYO-1, 0.00017 µM	1.03
SYO-1, 0.00051 µM	0.983
SYO-1, 0.00152 µM	0.982
SYO-1, 0.00457 µM	0.9645
SYO-1, 0.01372 µM	0.928
SYO-1, 0.04115 µM	0.862
SYO-1, 0.1235 µM	0.66
SYO-1, 0.3704 µM	0.302
SYO-1, 1.111 µM	0.137
SYO-1, 3.333 µM	0.128
SYO-1, 10 µM	0.13
VA-ES-BJ, 0.00017 µM	1.09
VA-ES-BJ, 0.00051 µM	1.07
VA-ES-BJ, 0.00152 µM	1.09
VA-ES-BJ, 0.00457 µM	1.07
VA-ES-BJ, 0.01372 µM	1.05
VA-ES-BJ, 0.04115 µM	0.922
VA-ES-BJ, 0.1235 µM	0.773
VA-ES-BJ, 0.3704 µM	0.67
VA-ES-BJ, 1.111 µM	0.381
VA-ES-BJ, 3.333 µM	-0.0139
VA-ES-BJ, 10 µM	-0.0189

CN1CCN(c2ccc(C(=O)Nc3n[nH]c4ccc(Cc5cc(F)cc(F)c5)cc34)c(NC3CCOCC3)c2)CC1 [Entrectinib]
Conditions	relative viability
A204, 0.00017 µM	1.05
A204, 0.00051 µM	1.06
A204, 0.00152 µM	1.04
A204, 0.00457 µM	1.06
A204, 0.01372 µM	1.09
A204, 0.04115 µM	1.04
A204, 0.1235 µM	1.02
A204, 0.3704 µM	1.05
A204, 1.111 µM	1.04
A204, 3.333 µM	0.865
A204, 10 µM	0.228
G401, 0.00017 µM	1.04
G401, 0.00051 µM	1.01
G401, 0.00152 µM	1.057
G401, 0.00457 µM	1.07
G401, 0.01372 µM	1.03
G401, 0.04115 µM	1.01
G401, 0.1235 µM	1.011
G401, 0.3704 µM	0.979
G401, 1.111 µM	0.87
G401, 3.333 µM	0.651
G401, 10 µM	0.163
HS729, 0.00017 µM	1.06
HS729, 0.00051 µM	0.975
HS729, 0.00152 µM	0.931
HS729, 0.00457 µM	0.948
HS729, 0.01372 µM	0.946
HS729, 0.04115 µM	0.959
HS729, 0.1235 µM	0.925
HS729, 0.3704 µM	0.919
HS729, 1.111 µM	0.832
HS729, 3.333 µM	0.665
HS729, 10 µM	0.382
KHOS-NP, 0.00017 µM	1.08
KHOS-NP, 0.00051 µM	1.1
KHOS-NP, 0.00152 µM	1.07
KHOS-NP, 0.00457 µM	1.08
KHOS-NP, 0.01372 µM	1.06
KHOS-NP, 0.04115 µM	1.05
KHOS-NP, 0.1235 µM	1.04
KHOS-NP, 0.3704 µM	1.03
KHOS-NP, 1.111 µM	1.01
KHOS-NP, 3.333 µM	0.98
KHOS-NP, 10 µM	0.602
MES-SA, 0.00017 µM	0.942
MES-SA, 0.00051 µM	0.942
MES-SA, 0.00152 µM	0.931
MES-SA, 0.00457 µM	0.925
MES-SA, 0.01372 µM	0.899
MES-SA, 0.04115 µM	0.904
MES-SA, 0.1235 µM	0.892
MES-SA, 0.3704 µM	0.893
MES-SA, 1.111 µM	0.821
MES-SA, 3.333 µM	0.702
MES-SA, 10 µM	0.364
RD, 0.00017 µM	1.08
RD, 0.00051 µM	1.13
RD, 0.00152 µM	1.14
RD, 0.00457 µM	1.13
RD, 0.01372 µM	1.11
RD, 0.04115 µM	1.1
RD, 0.1235 µM	1.11
RD, 0.3704 µM	1.07
RD, 1.111 µM	0.934
RD, 3.333 µM	0.589
RD, 10 µM	0.0669
SK-ES-1, 0.00017 µM	1.09
SK-ES-1, 0.00051 µM	1.04
SK-ES-1, 0.00152 µM	1.05
SK-ES-1, 0.00457 µM	1.06
SK-ES-1, 0.01372 µM	1.03
SK-ES-1, 0.04115 µM	1.1
SK-ES-1, 0.1235 µM	1.05
SK-ES-1, 0.3704 µM	0.959
SK-ES-1, 1.111 µM	0.844
SK-ES-1, 3.333 µM	0.465
SK-ES-1, 10 µM	0.105
SK-LMS-1, 0.00017 µM	1.13
SK-LMS-1, 0.00051 µM	1.1
SK-LMS-1, 0.00152 µM	1.12
SK-LMS-1, 0.00457 µM	1.13
SK-LMS-1, 0.01372 µM	1.1
SK-LMS-1, 0.04115 µM	1.07
SK-LMS-1, 0.1235 µM	1.07
SK-LMS-1, 0.3704 µM	1.072
SK-LMS-1, 1.111 µM	1.03
SK-LMS-1, 3.333 µM	0.856
SK-LMS-1, 10 µM	0.0143
SW684, 0.00017 µM	1.14
SW684, 0.00051 µM	1.17
SW684, 0.00152 µM	1.14
SW684, 0.00457 µM	1.2
SW684, 0.01372 µM	1.15
SW684, 0.04115 µM	1.15
SW684, 0.1235 µM	1.16
SW684, 0.3704 µM	1.12
SW684, 1.111 µM	1.1
SW684, 3.333 µM	0.971
SW684, 10 µM	-0.0109
SW872, 0.00017 µM	1.11
SW872, 0.00051 µM	1.09
SW872, 0.00152 µM	1.1
SW872, 0.00457 µM	1.07
SW872, 0.01372 µM	1.05
SW872, 0.04115 µM	1.05
SW872, 0.1235 µM	1.03
SW872, 0.3704 µM	0.961
SW872, 1.111 µM	0.887
SW872, 3.333 µM	0.66
SW872, 10 µM	0.218
SYO-1, 0.00017 µM	1.03
SYO-1, 0.00051 µM	0.998
SYO-1, 0.00152 µM	1.02
SYO-1, 0.00457 µM	0.953
SYO-1, 0.01372 µM	0.979
SYO-1, 0.04115 µM	0.948
SYO-1, 0.1235 µM	0.925
SYO-1, 0.3704 µM	0.851
SYO-1, 1.111 µM	0.765
SYO-1, 3.333 µM	0.529
SYO-1, 10 µM	-0.0142
VA-ES-BJ, 0.00017 µM	1.09
VA-ES-BJ, 0.00051 µM	1.08
VA-ES-BJ, 0.00152 µM	1.06
VA-ES-BJ, 0.00457 µM	1.05
VA-ES-BJ, 0.01372 µM	1.06
VA-ES-BJ, 0.04115 µM	1.03
VA-ES-BJ, 0.1235 µM	1.022
VA-ES-BJ, 0.3704 µM	1.01
VA-ES-BJ, 1.111 µM	0.976
VA-ES-BJ, 3.333 µM	0.894
VA-ES-BJ, 10 µM	0.575
